From publication PMC8341910, “Structural and biophysical insights into the mode of covalent binding of rationally designed potent BMX inhibitors” (RSC Chemical Biology, 2020)
Converted amounts (≈) assume the structure as drawn. “And” between values parts separate entries of the source, which are not always exact repeats. Identical values can stand only once. Like-named read-outs stand apart in the source and are kept apart here. Values belong to the molecule of their own block, whether it stands above or below them.

What was measured:
[1] = pH 6.8
From the text: (§1) For assessment of drug permeability, we relied on parallel artificial membrane permeability assay (PAMPA) performed at Pion Inc. with the PAMPA Evolution™ instrument (Table S1, ESI ^†).
(§2) methods (ESOL model1 and Ali et al.2) PAMPA: Pe is effective permeability (x10-6 cm/sec)
(§3) measured directly from assay at pH 6.8 and %R is membrane retention.
(§4) as the average of quadruplicates. Und label refers to compounds with extremely low solubility
(§5) for which UV limits were below the detection limits therefore considered undetected.
(§6) Compounds were labelled as high permeability (green), medium permeability (orange) or low
(§7) Artificial Membrane Permeability (PAMPA):
(§8) The PAMPA Evolution™ instrument was used to determine permeability, at Pion Inc. In
(§9) PAMPA, a sandwich is formed such that each composite well is divided into two chambers,
(§10) measured at pH 6.8 in the donor compartment using low-binding, low UV Prisma buffer. The
(§11) drug-free acceptor compartment was filled with acceptor sink buffer containing a scavenger at
(§12) the start of the test. The proprietary scavenger mimics serum proteins and blood circulation,
(§13) thus creating sink conditions. Aqueous solutions of studied compounds are prepared by diluting
(§14) and thoroughly mixing 3 µL of DMSO stock in 600 µL of Prisma HT buffer. Final
(§15) concentration of organic solvent (DMSO) in aqueous buffer is ≤ 0.5% (v/v). The reference
(§16) solution is identical to the donor at time zero, so that any surface adsorption effects from the
(§17) plastic ware is compensated. The PAMPA sandwich was assembled and allowed to incubate
(§18) for ~15 hours. The solutions in the donor compartment were un-stirred within duration of the
(§19) experiment. Thus, the thickness of the aqueous boundary layer expected to be about 1000 µm.
(§20) The sandwich was then separated, and both the donor and receiver compartments were assayed
(§21) for the amount of drug present by comparison with the UV spectrum obtained from reference

BMX [2] = molecular target: T1, BMX (Homo sapiens, UniProt P51813); assay: Kinetic characterization with ADP-Glo kinase assay; type: biochemical; design: purchased Promega Corporation (USA) V4512; settings: duplicate, mean ± S.D.
T1 sequence (P51813 1-675): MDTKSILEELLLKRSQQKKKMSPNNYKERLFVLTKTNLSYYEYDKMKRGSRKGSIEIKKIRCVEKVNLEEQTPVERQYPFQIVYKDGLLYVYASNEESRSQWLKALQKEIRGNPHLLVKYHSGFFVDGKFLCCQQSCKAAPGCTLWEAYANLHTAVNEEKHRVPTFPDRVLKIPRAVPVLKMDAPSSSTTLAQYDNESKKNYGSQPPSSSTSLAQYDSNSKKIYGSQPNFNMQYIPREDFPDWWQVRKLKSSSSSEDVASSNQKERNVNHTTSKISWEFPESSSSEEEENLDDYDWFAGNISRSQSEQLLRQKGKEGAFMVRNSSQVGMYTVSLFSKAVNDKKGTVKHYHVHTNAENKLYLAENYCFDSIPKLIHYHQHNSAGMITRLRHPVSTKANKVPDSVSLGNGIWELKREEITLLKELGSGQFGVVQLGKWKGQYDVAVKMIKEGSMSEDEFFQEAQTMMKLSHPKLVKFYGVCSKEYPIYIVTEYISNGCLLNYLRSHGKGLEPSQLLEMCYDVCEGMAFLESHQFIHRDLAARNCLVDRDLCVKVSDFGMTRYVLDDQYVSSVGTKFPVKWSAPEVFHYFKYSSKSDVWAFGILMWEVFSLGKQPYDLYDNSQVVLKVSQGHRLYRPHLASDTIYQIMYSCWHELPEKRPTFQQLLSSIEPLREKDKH
From the text: The inactivation of BMX occurs in a two-step process that is governed by two parameters: the affinity of the initial non-covalent binding, KI, and the rate of the subsequent covalent bond-forming reaction with the thiol of the cysteine residue, kinact. […]. […] Thus, taking into account that all the analogues have the same Michael acceptor moiety, the enhanced activity must be a result of the structural modifications introduced in the scaffold. […]
Kinetic characterization using an ADP-GLOTM kinase assay:
The BMX enzyme system (Catalog. V4512) and the ADP-GloTM kinase assay were purchased from Promega Corporation (USA). In each kinase reaction, the concentration of BMX was set to 4.5 ng/µL. The peptide substrate Poly (4:1 Glu, Tyr) and ATP concentrations were set to 0.25 mg/mL and 50 µM, respectively. BMX was pre-incubated with different inhibitor concentrations (10-fold serial dilutions, starting at 1 mM), over different time periods (2 - 60 min), before initiating the kinase reactions. Reactions were started by adding 2.5X Poly E4Y1/ATP mixture. The reactions were carried out in a 384-well plate, stopping all at the same time with the addition of 5 µL of ADP-GloTM reagent, to consume the remaining ATP within 40 min. Then, 10 µL of kinase detection reagent was added into the wells and incubated for 30 min to produce a luminescence signal. The signal was measured using an Infinite M200 […]
observed rate constants for inhibition (kobs), at different inhibitor concentrations, were determined from the slope of a semi-logarithmic plot of inhibition versus time, and re-plotted against inhibitor concentration (nM). The experimental values were fitted into a hyperbolic function using GraphPad Prism 8 ([…]), to obtain the KI, kinact, and kinact/KI, as described previously.12 […]
(Thermo Fisher Scientific) using gold-coated glass needles. […]

in vitro = settings: PAMPA
From the text: as §1, §2, §3, §4, §5, §6, §7, §8, §9, §10, §11, §12, §13, §14, §15, §16, §17, §18, §19, §20, §21

His6-hsBMX = molecular target: T2, His6-hsBMX (Homo sapiens, UniProt P51813); assay: Surface plasmon resonance (SPR); type: binding; settings: 1:1 Langmuir fit, 25 °C
T2 construct: Crystallization, data collection, and structure determination of BMX catalytic domain in; made in house; host or cells: Sf-9 insect cells
From the text: response upon compound injection (t=0s), or upon washing (t=220s), on immobilized His6-
hsBMX surfaces. Compound concentrations injected on already saturated surfaces were not
included in the 1:1 Langmuir fitting model. X-axis: time (s); y-axis: response (arbitrary units).
Inset plots [x-axis: compound concentration (M); y-axis: response (arbitrary units)] show the
steady-state affinity (KDss) fit for the interactions wherein equilibrium was reached.
Surface Plasmon Resonance:
The kinetic and affinity parameters of protein-compound interaction were evaluated by SPR.
Experiments were carried out in a Biacore 4000 instrument (Biacore AB, GE Healthcare Life
Sciences, Uppsala, Sweden) at 25 °C. His6-BMX protein was diluted to 10 µg/mL in sodium
acetate pH 5.5, in the presence of 5 µM staurosporine and immobilized onto CM5 (Series S)
sensor chips, using the standard amine coupling procedure. Prior to immobilization, the
carboxymethylated surface of the chip was activated with 400 mM 1-ethyl-3-(3-
dimethylaminopropyl)-carbodiimide and 100 mM N-hydroxysuccinimide for 10 min. HBS-N
(10 mM HEPES pH7.4, 150mM NaCl) was used as the background buffer. Protein was coupled
to the surface after 2 to 10 min injection times, at a flow rate of 10 µL/min, in order to reach
1500 to 3500 response units (RU). The remaining activated carboxymethylated groups were
blocked with a 7 min injection of 1 M ethanolamine pH 8.5. Compounds were pre-diluted in
DMSO to 50x the desired highest tested concentration and diluted afterwards in running buffer
(20 mM HEPES pH 7.4, 150 mM NaCl, 1 mM DTT, 0.1 mM EGTA, 0.05 % (v/v) TWEEN-
20, 5 mM MgCl2) in order to reach 2% of DMSO concentration. A DMSO solvent correction
(1% - 3%) was performed to account for variations in bulk signal and to achieve high-quality
data. Each compound was injected over immobilized His6-BMX for 220 s (30 µL min-1;
association phase) followed by 600 to 2000 s of buffer flow (dissociation phase) at a maximum
five times in 2-fold dilution series. All sensorgrams were processed by first subtracting the
binding response recorded from the control surface (reference spot), followed by subtracting
the buffer blank injection from the reaction spot. All datasets were fit to a simple 1:1 Langmuir
interaction model with the provided Biacore 4000 Evaluation software, to determine kinetic rate constants (kon, koff) or steady-state affinity (KDss).

LNCaP cells [3] = assay: LNCaP cell growth assay (CellTiter-Glo, 96 h); type: cell-based; settings: Homo sapiens, 96-well plates, mean of three experiments in triplicate, read-out: GI50 LNCaP
Experimental: (§22) GI50 values are reported in μM and are the mean of three individual experiments performed in triplicate. N.d., non-determined, no growth inhibition observed within the concentrations tested.
(§23) Cellular activity Assay: LNCaP and PC-3 Cell Growth Assay
(§24) Cells were seeded in white, opaque-bottom 96-well plates at 5000 cells/well (LNCaP) or 2000 cells/well (PC-3) in a total volume of 100 µL of culture media.
(§25) fold) in 100 µL media were added to the cells 24 hours later. After 96 hours incubation cellular viability was assessed by CellTiter-Glo® (Promega) according to the manufacturer’s instructions. The values were normalized to vehicle and IC50 was calculated using GraphPad

PC3 cells = assay: PC-3 cell growth assay (CellTiter-Glo, 96 h); type: cell-based; settings: Homo sapiens, PC-3; 96 h, 96-well plates; N.d. = no growth inhibition observed within the concentrations tested; read-out: GI50 PC3
Experimental: as §22, §23, §24, §25

LNCaP cells [4] = assay: Anti-proliferative co-treatment assays in LNCaP; type: cell-based; settings: JS24 3 μM, JS25 5 μM, JS26 6 μM, 5 days
[5] = molecular target: T3, recombinant human BMX protein (hBMX) (Homo sapiens, UniProt P51813); assay: Differential scanning fluorimetry (DSF); type: binding; settings: 100 μM compound; for ΔTm at 100 µM / ΔTm: versus apo-BMX; for ΔTm at 100 µM: read-out: ΔTm; for Average Tm of BMX with compound: apo-BMX Tm 51.8-52.2 °C
T3 construct: Crystallization, data collection, and structure determination of BMX catalytic domain in; made in house; host or cells: Sf-9 insect cells
Experimental: We further characterized the binding interaction between JS24–JS27 and BMX by using differential scanning fluorimetry (DSF) and surface plasmon resonance (SPR). Purified recombinant human BMX protein (hBMX) was first subjected to thermal scanning in the absence and presence of JS24–JS27, and the respective protein melting temperature (Tm) calculated.
Differential Scanning Fluorimetry:
DSF was performed in MicroAmp™ EnduraPlate™ Optical 96 -Well Clear Reaction Plates
with Barcode (Applied Biosystems, Life Technologies, California, USA) using a QuantStudio
7 Flex Real-Time PCR System (Applied Biosystems). Pre-incubation of the protein with the
compound for 2 hours at 4 °C was required prior to DSF experiments. The final reaction mixture
(20 μL of total volume) contained 4 μg of His6-BMX, 4-fold of Protein Thermal Shift™ Dye
(Applied Biosystems) diluted in protein buffer solution, and 100 μM of compound. The
temperatures were obtained by taking the midpoint of each transition.

[6] = Dynamic light scattering, colloidal aggregation; type: physicochemical; settings: measured at 10 µM, 1 µM and 100 nM, 25 °C, read-out: DLS maximum soluble concentration at which no aggregates are observed
Experimental: In addition, we measured particle sizes by using dynamic light scattering (DLS).
DLS is measured at 10 µM, 1µM and 100 nM. The maximum soluble
concentration – at which no aggregates are observed - is indicated and the colour code indicates
Dynamic Light Scattering:
Dynamic light scattering (Zetasizer Nano S, Malvern, UK) was used to determine compound colloidal aggregation. […] A 10 mM stock solution of
test compounds was prepared in DMSO, following dilution to deionized and filtered water to
obtain an analyte solution of 10 μM (0.1% DMSO). Colloidal aggregation was measured
through sequential dilutions at 10 μM, 1 μM and 0.1 μM.

BMX [7] = molecular target: T1, BMX; assay: BMX biochemical activity assay (HTRF, phosphorylation of a biotinylated peptide); settings: for LE (BMX): ligand efficiency; for LipE (BMX): lipophilic efficiency
BTK = BTK (Homo sapiens, UniProt Q06187); assay: BTK biochemical activity assay (radiometric, KinaseProfiler); design: purchased Eurofins DiscoverX KinaseProfiler (contract assay)
Sequence of BTK (Q06187 whole entry, species assumed): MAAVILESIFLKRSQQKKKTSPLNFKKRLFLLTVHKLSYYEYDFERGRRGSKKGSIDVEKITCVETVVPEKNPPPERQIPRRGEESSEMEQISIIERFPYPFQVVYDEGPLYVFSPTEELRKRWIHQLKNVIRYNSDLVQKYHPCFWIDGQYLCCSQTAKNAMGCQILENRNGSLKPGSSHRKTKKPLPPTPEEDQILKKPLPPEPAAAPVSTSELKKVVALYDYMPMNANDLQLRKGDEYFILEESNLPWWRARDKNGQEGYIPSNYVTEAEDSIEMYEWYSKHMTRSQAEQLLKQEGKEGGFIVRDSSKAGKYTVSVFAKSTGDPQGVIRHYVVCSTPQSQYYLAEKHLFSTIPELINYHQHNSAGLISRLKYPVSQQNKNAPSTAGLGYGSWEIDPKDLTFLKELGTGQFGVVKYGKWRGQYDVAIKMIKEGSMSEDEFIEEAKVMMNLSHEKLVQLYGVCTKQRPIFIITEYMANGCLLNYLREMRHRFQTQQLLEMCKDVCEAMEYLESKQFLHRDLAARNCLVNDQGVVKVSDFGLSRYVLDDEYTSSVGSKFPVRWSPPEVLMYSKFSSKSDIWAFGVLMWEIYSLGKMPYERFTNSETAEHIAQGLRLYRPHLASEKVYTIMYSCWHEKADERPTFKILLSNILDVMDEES

RS4(11) = assay: Multi cell line growth assay (CellTiter-Glo, 72 h); type: cell-based, human; settings: Lung (so in the source), ND = no growth inhibition observed
LNCaP = assay: Multi cell line growth assay (CellTiter-Glo, 72 h); type: cell-based, human; settings: Prostate, ND = no growth inhibition observed within the concentrations tested
SK-N-MC = assay: Multi cell line growth assay (CellTiter-Glo, 72 h); type: cell-based, human; settings: Brain, ND = no growth inhibition observed
DAUDI = assay: Multi cell line growth assay (CellTiter-Glo, 72 h); type: cell-based, human; settings: Lymphoid, ND = no growth inhibition observed
22 RV1 = assay: Multi cell line growth assay (CellTiter-Glo, 72 h); type: cell-based, human; settings: Prostate, ND = no growth inhibition observed
Jurkat = assay: Multi cell line growth assay (CellTiter-Glo, 72 h); type: cell-based, human; settings: Blood, ND = no growth inhibition observed
PC3 = assay: Multi cell line growth assay (CellTiter-Glo, 72 h); type: cell-based, human; settings: Prostate, ND = no growth inhibition observed
Kasumi = assay: Multi cell line growth assay (CellTiter-Glo, 72 h); type: cell-based, human; settings: Blood, ND = no growth inhibition observed
CAOV3 = assay: Multi cell line growth assay (CellTiter-Glo, 72 h); type: cell-based, human; settings: Ovary, ND = no growth inhibition observed
H1299 = assay: Multi cell line growth assay (CellTiter-Glo, 72 h); type: cell-based, human; settings: Bone marrow (so in the source), ND = no growth inhibition observed
[8] = pH 6.8, PAMPA/Pe effective permeability
[9] = deionized and filtered water (0.1% DMSO), kinetic from dmso stock
[10] = Experiment 4 of Fig. S3 = Fig. 1b, duplicate, mean ± S.D., read-out: BMX inhibition IC50
[11] = relative to the control of the same set of experiments
[12] = Experiment 1 of Fig. S3, control JS9A (in-house BMX-IN-1), read-out: BMX IC50

Compound: C=CC(=O)Nc1cccc(-n2c(=O)ccc3cnc4cc(N5CCN(S(C)(=O)=O)CC5)ccc4c32)c1 [JS27]
PAMPA/%R membrane retention [1]: 42±14% | k inact (BMX [2]): 0.166 min⁻¹ and 0.166 ± 0.003 min⁻¹ | Papp (in vitro; pH 6.8, PAMPA permeability): 12 ×10⁻⁶ cm/s | Papp (in vitro; [8]): 12 ± 2 ×10⁻⁶ cm/s | koff (His6-hsBMX): < 0.0001 s⁻¹ | kon (His6-hsBMX): 99000 M⁻¹ s⁻¹ | GI50 (LNCaP cells [3]): 9.3 µM | ΔTm at 100 µM [5]: 10.81 ± 0.06 °C | Average Tm of BMX with compound [5]: 62.94±0.06 °C | solubility [6, 9]: ≥ 10 µM | BTK potency gain (fold) relative to BMX-IN-1 (BTK): 15 fold | IC50 (BTK; duplicate, mean ± S.D., read-out: BTK inhibition IC50): 0.0243 ± 0.0003 µM | LE (BTK) (BTK; ligand efficiency): 0.29 | LipE (BTK) (BTK; lipophilic efficiency): 5.29 | IC50 (BMX [7]; [10]): 0.0137 µM | LE (BMX) (BMX [7]): 0.30 | LipE (BMX) (BMX [7]): 5.54 | BMX potency gain (fold) against BMX-IN-1 (BMX [7]; [11]): ≈ 4 fold

Compound: CC(C)=CC(=O)Nc1cc(-n2c(=O)ccc3cnc4ccc(-c5ccc(NS(C)(=O)=O)cc5)cc4c32)ccc1C [JS11]
PAMPA/%R membrane retention [1]: 54±9% | PAMPA/Pe effective permeability [1]: 31±4 x10-6 cm/sec | GI50 (RS4(11)): 6.66 µM | GI50 (LNCaP): 10.4 µM | GI50 (SK-N-MC): 8.24 µM | GI50 (DAUDI): 4.57 ± 0.12 µM | ΔTm [5]: 0.34±0.11 °C | Average Tm of BMX with compound [5]: 52.26±0.11 °C | GI50 (22 RV1): 7.3 µM | GI50 (Jurkat): 6.36 ± 0.17 µM | GI50 (PC3): 20.1 µM | GI50 (Kasumi): 10.14 ± 0.07 µM | solubility ([6]; water): 0.1 µM (≈ 0.0553 µg/mL) | GI50 (CAOV3): 19.3 µM

Compound: CC=CC(=O)Nc1cc(-n2c(=O)ccc3cnc4ccc(-c5ccc(NS(C)(=O)=O)cc5)cc4c32)ccc1C [JS10]
PAMPA/%R membrane retention [1]: 33±4% | PAMPA/Pe effective permeability [1]: 28±4 x10-6 cm/sec | GI50 (RS4(11)): 5.06 µM | GI50 (LNCaP): 9.7 µM | GI50 (SK-N-MC): 11.2 µM | GI50 (DAUDI): 2.57 ± 0.09 µM | GI50 (22 RV1): 4.86 ± 0.11 µM | GI50 (Jurkat): 9.71 ± 1.48 µM | GI50 (Kasumi): 4.37 ± 0.04 µM | solubility ([6]; water): 0.1 µM (≈ 0.0539 µg/mL) | GI50 (CAOV3): 17.3 µM | GI50 (H1299): 19.4 µM | IC50 (BMX [7]; [12]): 21 ± 7.25 µM | BMX potency loss (fold) against control BMX-IN-1 (BMX [7]; [11]): 58 fold

Compound: C=CC(=O)Nc1cc(-n2c(=O)ccc3cnc4ccc(-c5ccc(C#N)nc5)cc4c32)ccc1C [JS18]
PAMPA/%R membrane retention [1]: 18±5% | PAMPA/Pe effective permeability [1]: 24±2 x10-6 cm/sec | ΔTm [5]: 7.49±0.11 °C | Average Tm of BMX with compound [5]: 59.42±0.11 °C | solubility ([6]; water): < 0.1 µM | IC50 (BMX [7]; Experiment 2 of Fig. S3, control commercial BMX-IN-1, read-out: BMX IC50): 0.14 ± 0.012 µM

Now from value to molecule, other results behind:

PAMPA/%R membrane retention [1]: 8±14% | k inact (BMX [2]): 0.443 min⁻¹ and 0.443 ± 0.003 min⁻¹ | Papp (in vitro; pH 6.8, PAMPA permeability): 19 ×10⁻⁶ cm/s | Papp (in vitro; [8]): 19 ± 13 ×10⁻⁶ cm/s | koff (His6-hsBMX): < 0.0001 s⁻¹ | kon (His6-hsBMX): 72000 M⁻¹ s⁻¹ | GI50 (LNCaP cells [3]): 7.7 µM | GI50 (PC3 cells): 10.1 ± 1.3 µM | ΔTm at 100 µM [5]: 9.34 ± 0.21 °C | Average Tm of BMX with compound [5]: 61.47±0.21 °C | solubility [6, 9]: ≥ 10 µM | IC50 (BMX [7]; [10]): 0.0091 µM | LE (BMX) (BMX [7]): 0.30 | LipE (BMX) (BMX [7]): 4.45
Compound: C=CC(=O)Nc1cccc(-n2c(=O)ccc3cnc4cc(-c5ccc(NS(C)(=O)=O)cc5)ccc4c32)c1 [JS26]
decrease in cell viability (LNCaP cells [4]; co-treatment with AKT1/2 (1 μM), relative to control AKT1/2): 63% | decrease in cell viability (LNCaP cells [4]; co-treatment with LY294002 (3 μM)): 35%

PAMPA/%R membrane retention [1]: 35±7% | Papp (in vitro; [8]): 7.1 ± 2.3 ×10⁻⁶ cm/s | ΔTm at 100 µM [5]: 7.75 ± 0.11 °C | Average Tm of BMX with compound [5]: 59.68±0.11 °C | solubility [6, 9]: < 0.1 µM | IC50 (BMX [7]; [12]): 0.24 ± 0.025 µM
Compound: C=CC(=O)Nc1cc(C)cc(-n2c(=O)ccc3cnc4ccc(-c5ccc(NS(C)(=O)=O)cc5)cc4c32)c1 [JS9B, N-(3-methyl-5-(9-(4-(methylsulfonamido)phenyl)-2-oxobenzo[h][1,6]naphthyridin-1(2H)-yl)phenyl)acrylamide]

PAMPA/%R membrane retention [1]: 51±6% | Papp (in vitro; [8]): 11 ± 1 ×10⁻⁶ cm/s | ΔTm at 100 µM [5]: 2.2 ± 0.06 °C | Average Tm of BMX with compound [5]: 54.12±0.06 °C | solubility [6, 9]: 1 µM (≈ 0.525 µg/mL) | IC50 (BMX [7]; [12]): 6.9 ± 2.92 µM | BMX potency loss (fold) against control BMX-IN-1 (BMX [7]; [11]): abolishes target inhibition
Compound: C=CC(=O)Nc1ccc(C)c(-n2c(=O)ccc3cnc4ccc(-c5ccc(NS(C)(=O)=O)cc5)cc4c32)c1 [JS9C, N-(4-methyl-3-(9-(4-(methylsulfonamido)phenyl)-2-oxobenzo[h][1,6]naphthyridin-1(2H)-yl)phenyl)acrylamide]
